The record followed here is patent US20140113958A1, “HCV Combination Therapy” (priority 2011, published 2014).

One data set deals with Huh-luc/neo-ET cells. The data set can be described thus: Cellular toxicity by XTT dye reduction in Huh-luc/neo-ET cells. The method, then:
The anti-viral efficacy and cellular toxicity of non-transfected antimiR oligonucleotide in combination with approved and experimental anti-HCV therapeutics (e.g. NM283, 2′-C-methylcytidine, and/or VX-222) (or other NS5B polymerase inhibitors) was determined in the reporter cell line Huh-luc/neo-ET. This cell line harbors the persistently replicating I389luc-ubi-neo/NS3-3′/ET replicon containing the firefly luciferase gene-ubiquitin-neomycin phosphotransferase fusion protein and EMCV IRES driven NS3-5B HCV coding sequences containing the ET tissue culture adaptive mutations (E1202G, T1208I, and K1846T). Eight dilutions of non-transfected antimiR oligonucleotide (bracketing the calculated EC50) were evaluated in triplicate on duplicate sets of three plates with five dilutions of each of the control compounds (bracketing the calculated EC50). One set of plates was used for the determination of cellular toxicity and the other set of plates was used for the determination of anti-viral efficacy. The efficacy and toxicity results was quantified with firefly luciferase activity and XTT dye reduction, respectively, and the results of the assay is imported into the Prichard and Shipman MacSynergy II software program. The MacSynery II analysis includes calculation of the dose response of the two (or more) compounds when used alone followed by calculation of the expected additive level of antiviral inhibition or toxicity when the compounds are used together based on the individual dose response curves. The expected level of activity at each of the concentration data points was compared to the experimentally determined antiviral activity in the assay. The expected activity was subtracted from the realized activity, yielding a negative, zero or positive value. These values are plotted as a three dimensional representation of the data and the result is reported as a two-factor value, expressing the combined average above the expected level of activity (synergy volume) and the combined average below the expected level of activity (antagonism volume). Combination analysis was performed two or more times for each pair of test compound and control substance.
The reporter cell line Huh-luc/neo-ET was obtained from Dr. Ralf Bartenschlager (Department of Molecular Virology, Hygiene Institute, University of Heidelberg, Germany) by ImQuest BioSciences. This cell line harbors the persistently replicating 1389luc-ubi-neo/NS3-3′IET replicon containing the firefly luciferase gene-ubiquitinneomycin phosphotransferase fusion protein and EMCV IRES driven NS3-5B HCV coding sequences containing the ET tissue culture adaptive mutations (E 1202G, T12081, and KI846T). A stock culture of the Huh-luc/neo-ET was expanded by culture in DMEM supplemented with 10% FBS, 2 mM glutamine, penicillin (100 IU/mL)/streptomycin (100 f·Ig/mL) and IX nonessential amino acids plus I mg/ml G418. Prior to plating, the cells were split 1:4 and cultured for two passages in the same medium plus 250 f·Ig/mL G418. The cells were treated with trypsin and enumerated by staining with trypan blue and seeded into 96-well tissue culture plates at a cell culture density 5.0×10^3 cells per well in a volume of 85 f·IL per well and incubated at […] in an environment of 5% CO2 for 24 hours. Six plates were established for the determination of combination efficacy (EC50) and cytotoxicity (TC50) for each of the compound combinations (three plates each for efficacy and toxicity). […]
In general terms: Formazan colour is commonly taken as a measure of viable cells.

The subject of data set [1] is HCV genotype 1b replicon NS5A Y93H. The format is cell-based. The following applies: EC50 mutant / EC50 wild-type; mean of two experiments (individual values). The method, then: (§1) The in vitro antiviral of miravirsen was evaluated against wild-type HCV genotype 1b replicon and HCV genotype 1b replicons constructed to contain key amino acid substitutions in NS3 protease (A156T, R155K), NS5B polymerase (S282T, M423I) and NS5A protein (Y93H) in transient transfection assays utilizing Huh 7 cells. […] Huh 7 cells were transfected with either the wild-type or the mutant RNA constructs by electroporation. Luciferase activity was measured 72 hours after compound treatment and EC50 values determined from dose-response curves. Fold resistance was expressed as the ratio of the EC50 for mutant HCV replicon to the EC50 for wild-type HCV replicon.
(§2) The in vitro antiviral of miravirsen was evaluated against wild-type HCV genotype 1b replicon and HCV replicons constructed to contain key amino acid substitutions in NS3 protease (A156T, R155K), NS5B polymerase (S282T, M423I) and NS5A protein (Y93H) in transient transfection assays. […] Huh 7 cells were transfected with either the wild type or the mutant RNA constructs by electroporation. Luciferase activity was measured 72 hours after compound treatment and EC50 values determined from dose-response curves. Fold resistance was expressed as the ratio of the EC50 for mutant HCV replicon to the EC50 for wild-type HCV replicon. Results are expressed as the mean of two individual experiments. In an initial set of experiments, the standard protocol was modified by adding compounds 24 hours after electroporation. […] In a third experiment cells were pretreated with miravirsen for 24 hours before electroporation with wild-type RNA constructs to determine if preincubation could result in increased miravirsen antiviral activity.

The test system of data set [2] is HCV genotype 1b replicon NS5B M423I. The format is cell-based. The following applies: EC50 mutant / EC50 wild-type; mean of two experiments (individual values). The method, then:
as §1, §2

In data set [3] the test system is Huh-luc/neo-ET HCV genotype Ib replicon cells. The data set is classed as cell-based. Conditions: for rate of cell expansion / resistant clonal populations: selection with G418, 28 days; for resistant clonal populations: crystal violet. The protocol: Cell culture and Assay setup: The reporter cell line Huh-luc/neo-ET was obtained and prepare as described previously. Cells were plated into 10 cm tissue culture dishes at a density of 3×10^5 cells per plate in culture medium containing 250 μg/ml G418 and incubated for 24 hours at 37° C. in an environment of 5% C02. Following the 24 hour incubation, dilutions of SPC3649, SPC4729, or telaprevir were prepared in cell culture medium (as above) with 750 μg/ml G418. Each of the dilutions was added to duplicate plates and the plates were incubated at 37° C. in an environment of 5% CO^2. Two additional plates received cell culture medium with 750 μg/ml G418 as a no-treatment control. […] The final concentration of SPC4729 was 10.0 μM. […] Following 28 days of passage, one set of dishes was stained with crystal violet and the other set of plates was utilized for expansion and establishment of resistant cell culture stocks.
Huh-luc/neo-ET HCY genotype Ib replicon cells were cultured under selective pressure in the presence of 750 μg/mL G4 I8 with and without four independent fixed concentrations of SPC3649 anti-miR oligonucleotide, or telaprevir, or one concentration of scrambled oligonucleotide SPC4729 for 28 days in tissue culture plates. Duplicate tissue culture dishes were established and maintained for each culture condition. Medium was replaced bi-weekly during the 28 days of culture and the cells were split at the time of medium replenishment to maintain a confluent cell culture monolayer. Following four weeks in culture, cells were either fixed with methanol and stained with crystal violet or expanded for subsequent phenotypic and genotypic characterization.

For another data set, the system named is all HCV genotypes. Kind of data set: Activity against HCV genotypes in vitro. The data set is classed as cell-based.
For data set [4] the following is noted: compared with interferon alpha-2b.
The mark [5] stands for this setting: in combination with ribavirin, 95% confidence level.
Where [6] appears, read: second drug in combination with miravirsen (SPC3649), 95% confidence interval, median or individual values.

“Also recorded” adds a separate entry of the source. Like-named read-outs stand apart in the source and are kept apart here.

As for “5′-^mCs^ocsAs^otstsGs^oTs^ocsas^mCs^oas^mCs^ots^mCs^omC^o-3′ (CCATTGTCACACTCC; all phosphorothioate, sugars by position and methylation of C not given here; further chemistry not fully specified) [miravirsen]”, the CC50 in the data set on Huh-luc/neo-ET cells (read-out: CC50 (+/−SD), tested alone) was more than 158 µM. Also, in data set [1], the “fold change in susceptibility, NS5A Y93H” value was 0.9 (0.8, 0.9) fold. Further, the “fold change in susceptibility, NS5B M423I” value in data set [2] is 1.7 (2.3, 1.0) fold. Moreover, the “rate of cell expansion” value in data set [3] was “decrease in the rate of cell expansion”. Besides, the resistant clonal populations result in data set [3] (listed as SPC3649) is “failed to produce distinct individual resistant clonal populations; also recorded: distinct individual resistant clonal populations were not produced”. Moreover, the “activity against HCV genotypes in vitro” value in the data set on all HCV genotypes is “activity against all HCV genotypes in vitro; also recorded: effective against all HCV genotypes in vitro”. In data set [4], the therapeutic index entry is recorded as “at least an order of magnitude greater than interferon alpha-2b”.

Turning to `CCC[C@H](NC(=O)[C@@H]1[C@H]2CCC[C@H]2CN1C(=O)[C@@H](NC(=O)[C@@H](NC(=O)c1cnccn1)C1CCCCC1)C(C)(C)C)C(=O)C(=O)NC1CC1` [Telaprevir, (1S,3aR,6aS)-2-[(2S)-2-[[(2S)-2-Cyclohexyl-2-(pyrazine-2-carbonylamino)acetyl]amino]-3,3-dimethylbutanoyl]-N-[(3S)-1-(cyclopropylamino)-1,2-dioxohexan-3-yl]-3,3a,4,5,6,6a-hexahydro-1H-cyclopenta[c]pyrrole-1-carboxamide], in the data set on Huh-luc/neo-ET cells (in combination with ribavirin), the “impact of combination on in vitro cytotoxicity” value is “antagonistic interaction”. Besides, the “Cytotoxicity, Antag Vol” value in the data set with Huh-luc/neo-ET cells (setting [5]) is recorded as −50.9 μM^2%. In addition, the results for the “Cytotoxicity, Synergy vol” value with Huh-luc/neo-ET cells (setting [5]) and in the data set on Huh-luc/neo-ET cells (setting [6]) were 0.00 μM^2% and 0 μM^2%, respectively. The “Cytotoxicity, Antagonism vol” value with Huh-luc/neo-ET cells (setting [6]) was −5.05 μM^2%. The Cell split ratio result is recorded as “N.S” in data set [3] (1.50 μM plus G418, day 15); “N.S” in data set [3] (1.50 μM plus G418, day 22); “N.S” in data set [3] (3.00 μM plus G418, day 15); “N.S” in data set [3] (3.00 μM plus G418, day 18); “N.S” in data set [3] (3.00 μM plus G418, day 22); “N.S” in data set [3] (3.00 μM plus G418, day 25). The Cell split ratio entry is recorded as “N.S” in data set [3] (6.00 μM plus G418, day 11); “N.S” in data set [3] (6.00 μM plus G418, day 15); “N.S” in data set [3] (6.00 μM plus G418, day 18); “N.S” in data set [3] (6.00 μM plus G418, day 22); “N.S” in data set [3] (6.00 μM plus G418, day 25). In data set [3], the “rate of cell expansion” value is recorded as “dose-dependent decrease in the rate of cell expansion”. Moreover, in data set [3], the resistant clonal populations result was “production of distinct individual resistant clonal populations”.
